Patent US6943183B2 (Pfizer Inc, priority 2000, dated 2005)

Target: T1, SF9 affinity purified rat FPT (Rattus norvegicus, UniProt Q02293+Q04631)
T1 construct: made in house; host or cells: Sf9 insect cells
Test: PFT (FPT) inhibitory activity assay, radiolabeled farnesyl pyrophosphate and biotinyl peptide, streptavidin beads
Format: biochemical
Conditions: HEPES buffer pH 7.4, 30° C., 30 minutes; read-out: FTase IC50
In short: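 Rat FPT expressed in SF9 cells was incubated 30 minutes at 30° C. with compound (in 10% DMSO), radiolabeled farnesyl pyrophosphate and biotinylated peptide. Buffer: HEPES pH 7.4, ZnCl2 20 μM, MgCl2 and DTT 5 mM each, 0.1% PEG 8000, 5 mM potassium phosphate (also run without phosphate). Product captured on streptavidin beads in magnesium acetate/H3PO4 stop buffer.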

| SMILES | IC50 [nM] |
| --- | --- |
| C[C@H](O)CNC(=O)c1ccc(SCc2c(O[C@H](Cn3ccnc3)c3ccccc3)ccc3c2CCCC3=O)cc1 [Compound 196, N-[(2S)-2-Hydroxypropyl]-4-{[(2-{[(1S)-2-(1H-imidazol-1-yl)-1-phenylethyl]oxy}-5-oxo-5,6,7,8-tetrahydro-1-naphthalenyl)methyl]sulfanyl}benzamide] | 0.2 |
| C[C@H](O)CNC(=O)c1cccc(SCc2c(O[C@H](Cn3ccnc3)c3ccccc3)ccc3c2CCCC3=O)c1 [Compound 197, N-[(2S)-2-Hydroxypropyl]-3-{[(2-{[(1S)-2-(1H-imidazol-1-yl)-1-phenylethyl]oxy}-5-oxo-5,6,7,8-tetrahydro-1-naphthalenyl)methyl]sulfanyl}benzamide] | 0.2 |
| C[C@H](O)CNC(=O)c1ccccc1SCc1c(O[C@H](Cn2ccnc2)c2ccccc2)ccc2c1CCCC2=O [Compound 198, N-[(2S)-2-Hydroxypropyl]-2-{[(2-{[(1S)-2-(1H-imidazol-1-yl)-1-phenylethyl]oxy}-5-oxo-5,6,7,8-tetrahydro-1-naphthalenyl)methyl]sulfanyl}benzamide] | 0.2 |
| C[C@H](O)CNC(=O)c1ccc(S(=O)(=O)Cc2c(O[C@H](Cn3ccnc3)c3ccccc3)ccc3c2CCCC3=O)cc1 [Compound 199, N-[(2S)-2-Hydroxypropyl]-4-{[(2-{[(1S)-2-(1H-imidazol-1-yl)-1-phenylethyl]oxy}-5-oxo-5,6,7,8-tetrahydro-1-naphthalenyl)methyl]sulfonyl}benzamide] | 0.4 |
| C[C@H](O)CNC(=O)c1cccc(S(=O)(=O)Cc2c(O[C@H](Cn3ccnc3)c3ccccc3)ccc3c2CCCC3=O)c1 [Compound 200, N-[(2S)-2-Hydroxypropyl]-3-{[(2-{[(1S)-2-(1H-imidazol-1-yl)-1-phenylethyl]oxy}-5-oxo-5,6,7,8-tetrahydro-1-naphthalenyl)methyl]sulfonyl}benzamide] | 0.24 |
| C[C@H](O)CNC(=O)c1ccccc1S(=O)(=O)Cc1c(O[C@H](Cn2ccnc2)c2ccccc2)ccc2c1CCCC2=O [Compound 201, N-[(2S)-2-Hydroxypropyl]-2-{[(2-{[(1S)-2-(1H-imidazol-1-yl)-1-phenylethyl]oxy}-5-oxo-5,6,7,8-tetrahydro-1-naphthalenyl)methyl]sulfonyl}benzamide] | 0.2 |
| C[C@@H](O)CNC(=O)c1ccccc1S(=O)(=O)Cc1c(O[C@H](Cn2ccnc2)c2ccccc2)ccc2c1CCCC2=O [Compound 202, N-[(2R)-2-Hydroxypropyl]-2-{[(2-{[(1S)-2-(1H-imidazol-1-yl)-1-phenylethyl]oxy}-5-oxo-5,6,7,8-tetrahydro-1-naphthalenyl)methyl]sulfonyl}benzamide] | 0.2 |
| C[C@@H](O)CNC(=O)c1ccc(S(=O)(=O)Cc2c(O[C@H](Cn3ccnc3)c3ccccc3)ccc3c2CCCC3=O)cc1 [Compound 203, N-[(2R)-2-Hydroxypropyl]-4-{[(2-{[(1S)-2-(1H-imidazol-1-yl)-1-phenylethyl]oxy}-5-oxo-5,6,7,8-tetrahydro-1-naphthalenyl)methyl]sulfonyl}benzamide] | 1.2 |
| C[C@@H](O)CNC(=O)c1cccc(S(=O)(=O)Cc2c(O[C@H](Cn3ccnc3)c3ccccc3)ccc3c2CCCC3=O)c1 [Compound 204, N-[(2R)-2-Hydroxypropyl]-3-{[(2-{[(1S)-2-(1H-imidazol-1-yl)-1-phenylethyl]oxy}-5-oxo-5,6,7,8-tetrahydro-1-naphthalenyl)methyl]sulfonyl}benzamide] | 0.65 |
| C=CCNC(=O)c1cccc(S(=O)(=O)Cc2c(O[C@H](Cn3ccnc3)c3ccccc3)ccc3c2CCCC3=O)c1 [Compound 205, N-Allyl-3-{[(2-{[(1S)-2-(1H-imidazol-1-yl)-1-phenylethyl]oxy}-5-oxo-5,6,7,8-tetrahydro-1-naphthalenyl)methyl]sulfonyl}benzamide] | 0.2 |
| C=CCNC(=O)c1ccc(S(=O)(=O)Cc2c(O[C@H](Cn3ccnc3)c3ccccc3)ccc3c2CCCC3=O)cc1 [Compound 206, N-Allyl-4-{[(2-{[(1S)-2-(1H-imidazol-1-yl)-1-phenylethyl]oxy}-5-oxo-5,6,7,8-tetrahydro-1-naphthalenyl)methyl]sulfonyl}benzamide] | 0.8 |
| C=CCNC(=O)c1ccccc1S(=O)(=O)Cc1c(O[C@H](Cn2ccnc2)c2ccccc2)ccc2c1CCCC2=O [Compound 207, N-Allyl-2-{[(2-{[(1S)-2-(1H-imidazol-1-yl)-1-phenylethyl]oxy}-5-oxo-5,6,7,8-tetrahydro-1-naphthalenyl)methyl]sulfonyl}benzamide] | 0.2 |
| C=CCNC(=O)c1ccccc1SCc1c(O[C@H](Cn2ccnc2)c2ccccc2)ccc2c1CCCC2=O [Compound 208, N-Allyl-2-{[(2-{[(1S)-2-(1H-imidazol-1-yl)-1-phenylethyl]oxy}-5-oxo-5,6,7,8-tetrahydro-1-naphthalenyl)methyl]sulfanyl}benzamide] | 0.2 |

Results, then the molecule that gave them:

| IC50 [nM] | SMILES |
| --- | --- |
| 0.2 | C=CCNC(=O)c1ccc(SCc2c(O[C@H](Cn3ccnc3)c3ccccc3)ccc3c2CCCC3=O)cc1 [Compound 209, N-Allyl-4-{[(2-{[(1S)-2-(1H-imidazol-1-yl)-1-phenylethyl]oxy}-5-oxo-5,6,7,8-tetrahydro-1-naphthalenyl)methyl]sulfanyl}benzamide] |
| 0.2 | C=CCNC(=O)c1cccc(SCc2c(O[C@H](Cn3ccnc3)c3ccccc3)ccc3c2CCCC3=O)c1 [Compound 210, N-Allyl-3-{[(2-{[(1S)-2-(1H-imidazol-1-yl)-1-phenylethyl]oxy}-5-oxo-5,6,7,8-tetrahydro-1-naphthalenyl)methyl]sulfanyl}benzamide] |
| 0.2 | C#CCNC(=O)c1ccccc1SCc1c(O[C@H](Cn2ccnc2)c2ccccc2)ccc2c1CCCC2=O [Compound 211, 2-{[(2-{[(1S)-2-(1H-Imidazol-1-yl)-1-phenylethyl]oxy}-5-oxo-5,6,7,8-tetrahydro-1-naphthalenyl)methyl]sulfanyl}-N-(2-propynyl)benzamide] |
| 0.2 | C#CCNC(=O)c1ccc(SCc2c(O[C@H](Cn3ccnc3)c3ccccc3)ccc3c2CCCC3=O)cc1 [Compound 212, 4-{[(2-{[(1S)-2-(1H-Imidazol-1-yl)-1-phenylethyl]oxy}-5-oxo-5,6,7,8-tetrahydro-1-naphthalenyl)methyl]sulfanyl}-N-(2-propynyl)benzamide] |
| 0.2 | C#CCNC(=O)c1cccc(SCc2c(O[C@H](Cn3ccnc3)c3ccccc3)ccc3c2CCCC3=O)c1 [Compound 213, 3-{[(2-{[(1S)-2-(1H-Imidazol-1-yl)-1-phenylethyl]oxy}-5-oxo-5,6,7,8-tetrahydro-1-naphthalenyl)methyl]sulfanyl}-N-(2-propynyl)benzamide] |
| 0.37 | C#CCNC(=O)c1ccc(S(=O)(=O)Cc2c(O[C@H](Cn3ccnc3)c3ccccc3)ccc3c2CCCC3=O)cc1 [Compound 214, 4-{[(2-{[(1S)-2-(1H-Imidazol-1-yl)-1-phenylethyl]oxy}-5-oxo-5,6,7,8-tetrahydro-1-naphthalenyl)methyl]sulfonyl}-N-(2-propynyl)benzamide] |
| 0.2 | C#CCNC(=O)c1cccc(S(=O)(=O)Cc2c(O[C@H](Cn3ccnc3)c3ccccc3)ccc3c2CCCC3=O)c1 [Compound 215, 3-{[(2-{[(1S)-2-(1H-Imidazol-1-yl)-1-phenylethyl]oxy}-5-oxo-5,6,7,8-tetrahydro-1-naphthalenyl)methyl]sulfonyl}-N-(2-propynyl)benzamide] |
| 0.4 | C#CCNC(=O)c1ccccc1S(=O)(=O)Cc1c(O[C@H](Cn2ccnc2)c2ccccc2)ccc2c1CCCC2=O [Compound 216, 2-{[(2-{[(1S)-2-(1H-Imidazol-1-yl)-1-phenylethyl]oxy}-5-oxo-5,6,7,8-tetrahydro-1-naphthalenyl)methyl]sulfonyl}-N-(2-propynyl)benzamide] |
| 0.2 | O=C(NC1CCCC1)c1ccc(S(=O)(=O)Cc2c(O[C@H](Cn3ccnc3)c3ccccc3)ccc3c2CCCC3=O)cc1 [Compound 217, N-Cyclopentyl-4-{[(2-{[(1S)-2-(1H-imidazol-1-yl)-1-phenylethyl]oxy}-5-oxo-5,6,7,8-tetrahydro-1-naphthalenyl)methyl]sulfonyl}benzamide] |
| 0.2 | O=C(NC1CCCC1)c1cccc(S(=O)(=O)Cc2c(O[C@H](Cn3ccnc3)c3ccccc3)ccc3c2CCCC3=O)c1 [Compound 218, N-Cyclopentyl-3-{[(2-{[(1S)-2-(1H-imidazol-1-yl)-1-phenylethyl]oxy}-5-oxo-5,6,7,8-tetrahydro-1-naphthalenyl)methyl]sulfonyl}benzamide] |
| 0.47 | O=C(NC1CCCC1)c1ccccc1S(=O)(=O)Cc1c(O[C@H](Cn2ccnc2)c2ccccc2)ccc2c1CCCC2=O [Compound 219, N-Cyclopentyl-2-{[(2-{[(1S)-2-(1H-imidazol-1-yl)-1-phenylethyl]oxy}-5-oxo-5,6,7,8-tetrahydro-1-naphthalenyl)methyl]sulfonyl}benzamide] |
| 0.2 | O=C(NC1CCCC1)c1ccc(SCc2c(O[C@H](Cn3ccnc3)c3ccccc3)ccc3c2CCCC3=O)cc1 [Compound 220, N-Cyclopentyl-4-{[(2-{[(1S)-2-(1H-imidazol-1-yl)-1-phenylethyl]oxy}-5-oxo-5,6,7,8-tetrahydro-1-naphthalenyl)methyl]sulfanyl}benzamide] |
| 0.2 | O=C(NC1CCCC1)c1cccc(SCc2c(O[C@H](Cn3ccnc3)c3ccccc3)ccc3c2CCCC3=O)c1 [Compound 221, N-Cyclopentyl-3-{[(2-{[(1S)-2-(1H-imidazol-1-yl)-1-phenylethyl]oxy}-5-oxo-5,6,7,8-tetrahydro-1-naphthalenyl)methyl]sulfanyl}benzamide] |
| 0.2 | O=C(NC1CCCC1)c1ccccc1SCc1c(O[C@H](Cn2ccnc2)c2ccccc2)ccc2c1CCCC2=O [Compound 222, N-Cyclopentyl-2-{[(2-{[(1S)-2-(1H-imidazol-1-yl)-1-phenylethyl]oxy}-5-oxo-5,6,7,8-tetrahydro-1-naphthalenyl)methyl]sulfanyl}benzamide] |
